In the supplement of paper PMC10307832:

Legend:
Test in all cases: relative viability (nuclei count vs DMSO), 5 days (fraction); higher = more cells survive
[1] = compound: CC1=C(C(=NN1)C)CC2=C(C3=C(S2)N(C(=O)N(C3=O)C)CC(C)C)C(=O)N4C[C@@H](CO4)O + COc1cccc2cc(-c3nc([C@H]4CC[C@H](C(=O)O)CC4)n4ncnc(N)c34)[nH]c12 [OSI-027] (partner 0.5 µM)
Outline: (§1)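 After 5 days of treatment, lung cancer cells in 1536-well plates were fixed and stained in a single step (final 0.05% Triton X-100, 1% formaldehyde, 1 ug/ml Hoechst) and their nuclei counted on 4× images. Treatment had been applied by pin tool the day after seeding as one drug alone or as a fixed anchor-drug dose with five library-drug doses (not always all listed) in √10 steps. Relative viability is the nuclei count of treated wells divided by that of vehicle wells, and values are medians of duplicate plates.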

[2] = compound: Cc1ccccc1C(C(=O)NC1CCCCC1)N(C(=O)Cn1ccnc1C)c1cccc(F)c1 [IDH-C35] + CCNC(=O)c1noc(-c2cc(C(C)C)c(O)cc2O)c1-c1ccc(CN2CCOCC2)cc1 [Luminespib] (partner 0.01 µM)
Outline: as §1

[3] = compound: Cc1ccccc1C(C(=O)NC1CCCCC1)N(C(=O)Cn1ccnc1C)c1cccc(F)c1 [IDH-C35] + NC(=O)Nc1cc(-c2cccc(F)c2)sc1C(=O)N[C@H]1CCCNC1 [AZD7762] (partner 0.2 µM)
Outline: as §1

[4] = compound: Cc1ccccc1C(C(=O)NC1CCCCC1)N(C(=O)Cn1ccnc1C)c1cccc(F)c1 [IDH-C35] + CS(=O)(=O)CCNCc1ccc(-c2ccc3ncnc(Nc4ccc(OCc5cccc(F)c5)c(Cl)c4)c3c2)o1 [Lapatinib] (partner 2 µM)
Outline: as §1

Row | Cell Line | relative viability ([1]; first compound 0.0025 µM) | relative viability ([1]; first compound 0.007906 µM) | relative viability ([1]; first compound 0.025 µM) | relative viability ([1]; first compound 0.07906 µM) | relative viability ([1]; first compound 0.25 µM) | relative viability ([2]; first compound 0.08 µM) | relative viability ([2]; first compound 0.253 µM) | relative viability ([2]; first compound 0.8 µM) | relative viability ([2]; first compound 2.53 µM) | relative viability ([2]; first compound 8 µM) | relative viability ([3]; first compound 0.08 µM) | relative viability ([3]; first compound 0.253 µM) | relative viability ([3]; first compound 0.8 µM) | relative viability ([3]; first compound 2.53 µM) | relative viability ([3]; first compound 8 µM) | relative viability ([4]; first compound 0.08 µM) | relative viability ([4]; first compound 0.253 µM) | relative viability ([4]; first compound 0.8 µM) | relative viability ([4]; first compound 2.53 µM) | relative viability ([4]; first compound 8 µM)
1 | LCLC-103H | 0.529 | 0.466 | 0.467 | 0.496 | 0.512 | 0.93 | 0.999 | 0.95 | 0.959 | 0.859 | 0.831 | 0.792 | 0.81 | 0.779 | 0.829 |  |  |  |  | 
2 | NCI-H441 | 0.601 | 0.634 | 0.707 | 0.665 | 0.677 | 0.26 | 0.306 | 0.293 | 0.293 | 0.399 | 1.39 | 1.31 | 1.09 | 1.21 | 0.98 |  |  |  |  | 
3 | NCI-H520 | 0.276 | 0.281 | 0.27 | 0.277 | 0.193 | 0.26 | 0.189 | 0.27 | 0.21 | 0.269 |  |  |  |  |  | 0.895 | 0.979 | 0.765 | 0.884 | 0.914
4 | NCI-H522 | 0.804 | 0.624 | 0.608 | 0.45 | 0.546 | 0.958 | 1 | 1.1 | 1.22 | 1 | 0.845 | 0.934 | 0.868 | 0.788 | 0.985 |  |  |  |  | 
5 | NCI-H661 | 0.783 | 0.636 | 0.663 | 0.677 | 0.862 | 0.905 | 0.907 | 0.963 | 0.882 | 0.914 |  |  |  |  |  | 0.634 | 0.447 | 0.362 | 0.519 | 0.351
6 | NCI-H1299 |  |  |  |  |  |  |  |  |  |  |  |  |  |  |  | 1.02 | 0.975 | 0.967 | 0.936 | 0.898
7 | NCI-H1563 | 0.802 | 0.76 | 0.738 | 0.779 | 0.741 | 0.538 | 0.563 | 0.558 | 0.508 | 0.536 |  |  |  |  |  | 1.11 | 0.955 | 0.96 | 0.912 | 1.09
8 | NCI-H1648 | 0.238 | 0.247 | 0.303 | 0.253 | 0.267 |  |  |  |  |  |  | 0.578 | 0.781 | 0.687 | 0.703 |  |  |  |  | 
9 | NCI-H1650 | 0.788 | 0.657 | 0.755 | 0.817 | 0.631 | 0.207 | 0.182 | 0.214 | 0.2 | 0.199 |  |  |  |  |  | 0.785 | 0.835 | 0.692 | 0.285 | 0.664
10 | NCI-H1703 |  |  |  |  |  |  |  |  |  |  |  | 0.141 |  | 0.131 | 0.148 | 1.06 | 1.06 | 0.866 | 0.831 | 1.1
11 | NCI-H2009 | 0.742 | 0.701 | 0.616 | 0.706 | 0.695 | 1.08 | 1.01 | 0.999 | 0.921 | 1.01 |  |  |  |  |  | 1 | 0.928 | 0.908 | 0.639 | 0.729
12 | NCI-H2023 | 0.465 | 0.423 | 0.481 | 0.473 | 0.393 | 0.617 | 0.769 | 0.854 | 0.722 | 0.506 |  |  |  |  |  | 0.938 | 0.921 | 0.83 | 0.263 | 0.808
13 | NCI-H2228 | 0.68 | 0.61 | 0.683 | 0.609 | 0.649 | 0.213 | 0.152 | 0.111 | 0.184 | 0.155 |  |  |  |  |  | 1.02 | 0.984 | 0.925 | 0.985 | 0.931
14 | NCI-H2342 | 0.588 | 0.584 | 0.624 | 0.618 | 0.587 | 0.818 | 0.617 | 0.803 | 0.631 | 0.7 | 0.521 | 0.563 | 0.498 | 0.572 | 0.384 |  |  |  |  | 
15 | SK-LU-1 | 0.311 | 0.227 | 0.217 | 0.246 | 0.229 | 0.219 | 0.207 | 0.188 | 0.225 | 0.259 |  |  |  |  |  | 0.918 | 0.856 | 0.871 | 0.976 | 0.82
16 | SK-MES-1 | 0.664 | 0.68 | 0.634 | 0.66 | 0.694 | 0.701 | 0.939 | 0.855 | 0.861 | 0.749 |  |  |  |  |  | 0.435 | 0.49 | 0.446 | 0.481 | 0.413
17 | SW 900 | 0.671 | 0.66 | 0.55 | 0.659 | 0.54 | 0.175 | 0.178 | 0.181 | 0.179 | 0.162 | 0.564 | 0.787 |  | 0.505 | 0.549 |  |  |  |  | 
18 | SW 1573 | 0.711 | 0.846 | 0.527 | 0.69 | 0.64 | 0.136 | 0.218 | 0.257 | 0.442 | 0.248 |  |  |  |  |  | 1.2 | 1.26 | 1.09 | 1.05 | 1.09
19 | UMC-11 | 0.494 | 0.473 | 0.468 | 0.549 | 0.572 | 1.01 | 1.03 | 1.02 | 1.08 | 1.01 |  |  |  |  |  | 1.01 | 0.976 | 0.98 | 0.96 | 1.09
